The text below walks through data of patent US20140242609A1, “Diagnosis and treatment of kidney stones, methods and compositions therefor” (Washington University, priority 2013, published 2014).

In one test the test system is pri-miR-374. The experiment in a line: pri-miR-374 transcript levels in TALH of treated mouse kidneys (real-time PCR). It is filed as in vivo. Particulars: for pri-miR-374 levels versus control: 8 hrs. The source says: (§1) Total RNA including microRNA was extracted using Trizol (Invitrogen). Cellular mRNA was reverse transcribed using the Superscript-III kit (Invitrogen), followed by real-time PCR amplification using SYBR Green PCR Master Mix (Bio-Rad) and Eppendorf Realplex2S system. The design of claudin-14 primers was described above. The design of pri-miRNA primers was according to Ma et al., (2010). Results were expressed as 2^−ΔCt values with ΔCT=Ctgene−Ctβ-actin.
(§2) To measure the transcriptional level for microRNA gene in vivo in the kidney, the inventors designed primers (see Methods; Table 2) to amplify the pri-miRNA molecule, the original transcript for microRNA gene that had not yet been subjected to any nuclear or cellular processing. Because both miR-9 and miR-374 had broader localization profiles along the nephron, the inventors isolated the TALH tubular cells for pri-miRNA analyses from the mouse kidney described elsewhere in this study. WT mice (strain: C57BL/6) were treated with NPS2143 or cinacalcet as described for claudin-14 analyses and assayed for pri-miRNA levels in isolated TALH cells at 2 hrs and 8 hrs respectively. […] NPS2143 and cinacalcet also profoundly regulated pri-miR-374. […] The expression levels of miR-9-1 and miR-374 genes were both inversely correlated with that of claudin-14 gene in the kidney, compatible with the silencing role of microRNA in regulating its target gene.
(§3) Total RNA including microRNA was extracted using Trizol (Invitrogen). Cellular mRNA was reverse transcribed using the Superscript-III kit (Invitrogen), followed by real-time PCR amplification using SYBR Green PCR Master Mix (Bio-Rad) and Eppendorf Realplex2S system. The design of claudin-14 primers was described before by Gong et al., 2012. The design of pri-miRNA primers and ChIP primers was according to Gong et al., 2013. Results were expressed as 2^−ΔCt values with ΔCT=Ctgene−Ctβ-actin.
(§4) Total RNA including microRNA was extracted using Trizol (Invitrogen). Cellular mRNA was reverse transcribed using the Superscript-III kit (Invitrogen), followed by real-time PCR amplification using SYBR Green PCR Master Mix (Bio-Rad) and Eppendorf Realplex2S system. The design of claudin-14 primers was described before by Gong. Y., et al., 2012. The design of pri-miRNA primers was according to Ma. L., et al., 2010. Results were expressed as 2^−ΔCt values with ΔCT=Ctgene−Ctβ-actin.
In general terms: In qPCR the cycle at which signal appears reflects the starting amount.

The test system of another test is pri-miR-9-1. Nature of the test: pri-miR-9-1 transcript levels in TALH of treated mouse kidneys (real-time PCR). The settings on record: for changes in pri-miR-9-1 levels: by 8 hrs. Type of test: in vivo.
Description: as §1, §2, §3, §4

In the next test the test system is claudin-14 protein. Nature of the test: claudin-14 protein levels in freshly isolated TALH cells pooled from treated mouse kidneys (western blot). The settings on record: for claudin-14 protein levels, change: 30 mg/kg BW−1 per day for 6 days, 24 hrs following the last treatment. Type of test: in vivo. As for the experimental part: (§5) An immunomagnetic separation method was used to isolate the TAL cells from the mouse kidney (Hou et al., 2009). Antibodies against the TAL cell specific surface antigen, Tamm-Horsfall protein (THP), were coated onto the paramagnetic polystyrene beads (Dynabeads M-280; Dynal), allowing immunoprecipitation of the TAL cells from collagenase digested mouse kidneys. The isolated cells were plated in DMEM medium supplemented with 10% FBS, penicillin/streptomycin, and 1 mM sodium pyruvate for 16 hours, followed by immediate transfection with NFAT or antagomirs.
Because of the low abundance of claudin-14 proteins in the whole kidney, an immunomagnetic separation method was adapted to freshly isolate the TALH tubular cells from the kidneys of each treated mouse, pooled the TALH cells from all animals (N=5) within each treatment group and quantified claudin-14 protein levels by western blot. […] Claudin-14 proteins were immunostained in mouse kidneys to investigate changes in TJ localization.
An immunomagnetic separation method was used to isolate the TALH cells from the mouse kidney. (Gong Y, et al. 2012 and Gong Y, et al. 2013) Antibodies against the TALH cell specific surface antigen, Tamm-Horsfall protein, were coated onto the paramagnetic polystyrene beads (Dynabeads M-280; Dynal), allowing immunoprecipitation of the TALH cells from collagenase digested mouse kidneys. The isolated cells were plated in DMEM medium supplemented with 10% FBS, penicillin/streptomycin, and 1 mM sodium pyruvate for 16 hours, followed by immediate treatment.
as §5, with “TALH” for “TAL”, “kidney. (Gong, Y.,” for “kidney (Hou”, “2012; Hou, J., et al., 2009)” for “2009).”, “(THP; a GPI-anchored protein that is exclusively expressed in the TALH and the early part of the DCT,) (Stricklett, P. K., et al., 2003; Bernascone, I., et al., 2010)” for “(THP),”, “NFAT.” for “NFAT or antagomirs.”
Changes in claudin-14 protein levels were captured as early as 2 hrs following a single oral dose of NPS2143 or cinacalcet (30 mg/kg BW^−1) treatment. Because of the low abundance of claudin-14 proteins in the whole kidney, the inventors adapted an immunomagnetic separation method to freshly isolate the TALH tubular cells from the kidneys of each treated mouse (described in Gong, Y., et al., 2012 and Hou, J., et al. 2009; see Methods), pooled the TALH cells from all animals (N=5) within each treatment group, isolated plasma membrane proteins and quantified claudin-14 protein levels by western blot. […] Although claudins were previously considered static molecules sequestered in the tight junction, several recent studies have found similarly rapid turnover rate of less than 60 min for claudins (see Discussion). Claudin-14 proteins were inummuostained in mouse kidneys to investigate changes in TJ localization.
(Immunoblotting shows a protein as a band on a membrane.)

The next test deals with miR-374 promoter. Nature of the test: ChIP over miR-374 promoter in TALH cells of treated mice. It is filed as in vivo, mouse. Particulars: for H3K9 and H3K14 acetylation levels, miR-374 promoter region / fold enrichment of NFATc1 over miR-374 promoter region: 30 mg/kg BW−1, 2 hrs; for H3K9 and H3K14 acetylation levels, miR-374 promoter region: higher than vehicle level; for fold enrichment of NFATc1 over miR-374 promoter region: versus vehicle. As for the experimental part: (§6) Freshly isolated TALH cells or primary TALH cell cultures were cross-linked in 1% paraformaldehyde (pH7.0) for 10 min at room temperature. The cross-linked cells were lysed following to instruction of MAGnify ChIP system (Invitrogen). Chromatin was sonicated into 500 bp fragments with Bioruptor UCD-200 (High power, 15 cycles of 30 seconds ON, 30 seconds OFF; Diagenode). Sheared chromatin was precipitated with antibody-bound Dynabeads (Invitrogen). Following reverse crosslink and DNA extraction, antibody-bound DNA was eluted and analyzed with real-time PCR. Two criteria for normalization were applied: fold enrichment over anti-IgG background signal and input control over chromatin input signal.
as §6, with “OFF,” for “OFF;”

The mark [1] stands for this setting: TPTX mice, 30 mg/kg BW−1, 2 hrs.
Setting [2] is: cyclosporine-A pre-treated animals, 30 mg/kg BW−1, 2 hrs.

With `C[C@@H](NCCCc1cccc(C(F)(F)F)c1)c1cccc2ccccc12` [cinacalcet], the “pri-miR-374, downregulation” value with pri-miR-374 (30 mg/kg BW−1, 2 hrs) is listed as 71%. The “pri-miR-374 levels versus control” value with pri-miR-374 (30 mg/kg BW−1) is listed as “not different from control”. In addition, in the test on pri-miR-374 (setting [1]), the “pri-miR-374 level, reduction” value stood at 53%. Besides, the “pri-miR-374 mRNA levels, decrease” value in the test with pri-miR-374 (setting [2]) was 39%. Besides, the “pri-miR-9-1 transcript level, decrease” value with pri-miR-9-1 (30 mg/kg BW−1, 2 hrs) was determined as 88%. Moreover, the “changes in pri-miR-9-1 levels” value in the test on pri-miR-9-1 (30 mg/kg BW−1) is listed as “dissipated completely”. Besides, in the test on pri-miR-9-1 (setting [1]), the “pri-miR-9-1 level, reduction” value is recorded as 55%. In the test on pri-miR-9-1 (setting [2]), the “pri-miR-9-1 mRNA levels, decrease” value came to 34%. Besides, the “claudin-14 protein levels, change” value with claudin-14 protein is reported as “Neither NPS2143 nor cinacalcet caused changes”. Besides, in the test with claudin-14 protein (single oral dose 30 mg/kg BW−1, 2 hrs), the “claudin-14 protein levels, upregulation” value was 2.98 fold. Besides, in the test on miR-374 promoter, the “H3K9 and H3K14 acetylation levels, miR-374 promoter region” value is “not”; the “fold enrichment of NFATc1 over miR-374 promoter region” value is given as “without significant effect”.

For `CC(C)(Cc1ccc2ccccc2c1)NC[C@@H](O)COc1cccc(Cl)c1C#N` [NPS2143], the “pri-miR-374, upregulation” value with pri-miR-374 (30 mg/kg BW−1, 2 hrs) came to 2.91 fold. For the same molecule, in the test on pri-miR-374 (30 mg/kg BW−1), the “pri-miR-374 levels versus control” value was “not different from control”. In addition, in the test on pri-miR-374 (TPTX mice, 30 mg/kg BW−1), the “pri-miR-374 level, change” value is listed as “failed to elicit a significant change”. For the same molecule, the “pri-miR-374 mRNA levels, change” value in the test on pri-miR-374 (setting [2]) is on record as “failed to elicit any significant change”. Also, the “changes in pri-miR-9-1 levels” value in the test with pri-miR-9-1 (30 mg/kg BW−1) was “dissipated completely”. Also, the “pri-miR-9-1 level, increase” value in the test on pri-miR-9-1 (TPTX mice, 30 mg/kg BW−1) amounted to 19%. The “pri-miR-9-1 mRNA levels, change” value with pri-miR-9-1 (setting [2]) is recorded as “failed to elicit any significant change”. Moreover, the “pri-miR-9-1 transcript level, increase” value in the test on pri-miR-9-1 (single-dose 30 mg/kg BW−1, 2 hrs) was determined as 7.65 fold. The “claudin-14 protein levels, change” value with claudin-14 protein was “Neither NPS2143 nor cinacalcet caused changes”. In addition, in the test on claudin-14 protein (single oral dose 30 mg/kg BW−1, 2 hrs, densitometric scale), the “claudin-14 protein levels, percent of the vehicle treatment” value is reported as 32%. For the same molecule, in the test on miR-374 promoter, the “H3K9 and H3K14 acetylation levels, miR-374 promoter region” value is 1.93 fold; the “fold enrichment of NFATc1 over miR-374 promoter region” value amounted to 1.51 fold.

`O=C(CCCCCCC(=O)Nc1ccccc1)NO` [SAHA, Suberanilohydroxamic acid]: the “transcriptional levels of miR-374 gene (pri-miR-374), increase” value in the test with pri-miR-374 (25 mg/kg BW−1, 4 hrs) came to 1.85 fold. In addition, in the test on pri-miR-9-1 (25 mg/kg BW−1, 4 hrs), the “transcriptional levels of miR-9-1 gene (pri-miR-9-1), increase” value is 1.49 fold. Further, the “CLDN14 protein levels, reduction” value in the test with claudin-14 protein (25 mg/kg BW−1, 4 hr) was 60%. Also, in the test on miR-374 promoter (25 mg/kg BW−1, 4 hrs), the “H3K9 and H3K14 acetylation, miR-374 promoter, increase” value came to 2.45 fold; the “NFAT binding to miR-374 promoter” value is recorded as “not affected”.
